From PubChem BioAssay AID1963973 (Molecular Pharmacology Branch, DTP, NCI, 2024)

System: 883617-216-R-J1-PDC tumor spheroids, viability
Assay: Anticancer human tumor 883617-216-R-J1-PDC patient-derived bladder carcinoma cell line growth inhibition [PI3K]
Conditions: spheroids with HUVEC and MSC; for IC50: curve of first compound; for viability, T/C: stronger effect = lower value; active = viability on the fitted dose curve at most 10% of control; inactive = the rest
Method in brief: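 Combination activity was assessed by viability in multicellular tumor spheroids carrying HUVEC and MSC components. Agents were tested with PI3K inhibitors from a Cmax-based top dose (or 10 microM) downward in half-log increments.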

[1] = second compound 0.0316 µM, first compound 0.000316 µM
[2] = second compound 0.0316 µM, first compound 0.001 µM
[3] = second compound 0.0316 µM, first compound 0.00316 µM
[4] = second compound 0.0316 µM, first compound 0.01 µM
[5] = second compound 0.0316 µM, first compound 0.0316 µM
[6] = second compound 0.0316 µM, first compound 0.1 µM
[7] = second compound 0.1 µM, first compound 0.000316 µM
[8] = second compound 0.1 µM, first compound 0.001 µM
[9] = second compound 0.1 µM, first compound 0.00316 µM
[10] = second compound 0.1 µM, first compound 0.01 µM
[11] = second compound 0.1 µM, first compound 0.0316 µM
[12] = second compound 0.1 µM, first compound 0.1 µM
[13] = second compound 0.316 µM, first compound 0.000316 µM
[14] = second compound 0.316 µM, first compound 0.001 µM
[15] = second compound 0.316 µM, first compound 0.00316 µM
[16] = second compound 0.316 µM, first compound 0.01 µM
[17] = second compound 0.316 µM, first compound 0.0316 µM
[18] = second compound 0.316 µM, first compound 0.1 µM
[19] = second compound 1 µM, first compound 0.000316 µM
[20] = second compound 1 µM, first compound 0.001 µM
[21] = second compound 1 µM, first compound 0.00316 µM
[22] = second compound 1 µM, first compound 0.01 µM
[23] = second compound 1 µM, first compound 0.0316 µM
[24] = second compound 1 µM, first compound 0.1 µM
[25] = second compound 3.16 µM, first compound 0.000316 µM
[26] = second compound 3.16 µM, first compound 0.001 µM
[27] = second compound 3.16 µM, first compound 0.00316 µM
[28] = second compound 3.16 µM, first compound 0.01 µM
[29] = second compound 3.16 µM, first compound 0.0316 µM
[30] = second compound 3.16 µM, first compound 0.1 µM
[31] = second compound 10 µM, first compound 0.000316 µM
[32] = second compound 10 µM, first compound 0.001 µM
[33] = second compound 10 µM, first compound 0.00316 µM
[34] = second compound 10 µM, first compound 0.01 µM
[35] = second compound 10 µM, first compound 0.0316 µM
[36] = second compound 10 µM, first compound 0.1 µM
[37] = second compound 0.0316 µM, first compound 0.316 µM
[38] = second compound 0.0316 µM, first compound 1 µM
[39] = second compound 0.0316 µM, first compound 3.16 µM
[40] = second compound 0.0316 µM, first compound 10 µM
[41] = second compound 0.1 µM, first compound 0.316 µM
[42] = second compound 0.1 µM, first compound 1 µM
[43] = second compound 0.1 µM, first compound 3.16 µM
[44] = second compound 0.1 µM, first compound 10 µM
[45] = second compound 0.316 µM, first compound 0.316 µM
[46] = second compound 0.316 µM, first compound 1 µM
[47] = second compound 0.316 µM, first compound 3.16 µM
[48] = second compound 0.316 µM, first compound 10 µM
[49] = second compound 1 µM, first compound 0.316 µM
[50] = second compound 1 µM, first compound 1 µM
[51] = second compound 1 µM, first compound 3.16 µM
[52] = second compound 1 µM, first compound 10 µM
[53] = second compound 3.16 µM, first compound 0.316 µM
[54] = second compound 3.16 µM, first compound 1 µM
[55] = second compound 3.16 µM, first compound 3.16 µM
[56] = second compound 3.16 µM, first compound 10 µM
[57] = second compound 10 µM, first compound 0.316 µM
[58] = second compound 10 µM, first compound 1 µM
[59] = second compound 10 µM, first compound 3.16 µM
[60] = second compound 10 µM, first compound 10 µM
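Note: spheroids exposed to agents for 7 days before the viability read.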

CC(=O)c1c(C)c2cnc(Nc3ccc(N4CCNCC4)cn3)nc2n(C2CCCC2)c1=O + CC(Nc1ncnc2nc[nH]c12)c1cc2cccc(Cl)c2c(=O)n1-c1ccccc1
23 nM: IC50 (second compound 3.16 µM)
86 nM: IC50 (second compound 0.0316 µM)
76.2 nM: IC50 (second compound 0.316 µM)
46.7 nM: IC50 (second compound 1 µM)
< 0.316 nM: IC50 (second compound 10 µM)
79.9 nM: IC50 (second compound 0.1 µM)
inactive: viability, T/C [1] 92.9% | viability, T/C [2] 94.6% | viability, T/C [3] 87.7% | viability, T/C [4] 86.6% | viability, T/C [5] 79.6% | viability, T/C [6] 45.2% | viability, T/C [7] 96% | viability, T/C [8] 107% | viability, T/C [9] 76.3% | viability, T/C [10] 79.8% | viability, T/C [11] 86.3% | viability, T/C [12] 40.8% | viability, T/C [13] 100% | viability, T/C [14] 95.3% | viability, T/C [15] 87.1% | viability, T/C [16] 84.3% | viability, T/C [17] 58.8% | viability, T/C [18] 47.3% | viability, T/C [19] 98% | viability, T/C [20] 78.3% | viability, T/C [21] 80.3% | viability, T/C [22] 71.3% | viability, T/C [23] 58.6% | viability, T/C [24] 36.4% | viability, T/C [25] 76% | viability, T/C [26] 61.3% | viability, T/C [27] 68.8% | viability, T/C [28] 58.6% | viability, T/C [29] 44.1% | viability, T/C [30] 38.1% | viability, T/C [31] 52.7% | viability, T/C [32] 39.4% | viability, T/C [33] 41.4% | viability, T/C [34] 46.4% | viability, T/C [35] 31.9% | viability, T/C [36] 23.9%

CC(C)n1nc(-c2ccc3oc(N)nc3c2)c2c(N)ncnc21 + CC(Nc1ncnc2nc[nH]c12)c1cc2cccc(Cl)c2c(=O)n1-c1ccccc1
34.2 nM: IC50 (second compound 0.1 µM)
21.3 nM: IC50 (second compound 1 µM)
0.321 nM: IC50 (second compound 10 µM)
32.1 nM: IC50 (second compound 0.0316 µM)
30 nM: IC50 (second compound 0.316 µM)
13.5 nM: IC50 (second compound 3.16 µM)
inactive: viability, T/C [1] 91% | viability, T/C [2] 75.2% | viability, T/C [3] 76.8% | viability, T/C [4] 82% | viability, T/C [5] 50.4% | viability, T/C [6] 18.4% | viability, T/C [7] 95.3% | viability, T/C [8] 93% | viability, T/C [9] 87.6% | viability, T/C [10] 69.7% | viability, T/C [11] 54.5% | viability, T/C [12] 17.4% | viability, T/C [13] 87.4% | viability, T/C [14] 92.5% | viability, T/C [15] 81.7% | viability, T/C [16] 72.8% | viability, T/C [17] 49% | viability, T/C [18] 19.9% | viability, T/C [19] 91.2% | viability, T/C [20] 77.1% | viability, T/C [21] 80.2% | viability, T/C [22] 68.3% | viability, T/C [23] 40.2% | viability, T/C [24] 19.6% | viability, T/C [25] 83.6% | viability, T/C [26] 58.9% | viability, T/C [27] 63.2% | viability, T/C [28] 60.6% | viability, T/C [29] 38.1% | viability, T/C [30] 17.7% | viability, T/C [31] 48.3% | viability, T/C [32] 50.7% | viability, T/C [33] 45.8% | viability, T/C [34] 36.3% | viability, T/C [35] 26.8% | viability, T/C [36] 13%

CC1(C)CCC(CN2CCN(c3ccc(C(=O)NS(=O)(=O)c4ccc(NCC5CCOCC5)c([N+](=O)[O-])c4)c(Oc4cnc5[nH]ccc5c4)c3)CC2)=C(c2ccc(Cl)cc2)C1 + CC(Nc1ncnc2nc[nH]c12)c1cc2cccc(Cl)c2c(=O)n1-c1ccccc1
< 31.6 nM: IC50 (second compound 10 µM)
> 10000 nM: IC50 (second compound 0.0316 µM) | IC50 (second compound 0.1 µM)
8990 nM: IC50 (second compound 0.316 µM)
6400 nM: IC50 (second compound 3.16 µM)
7690 nM: IC50 (second compound 1 µM)
inactive: viability, T/C [5] 93.1% | viability, T/C [6] 87.2% | viability, T/C [37] 93.8% | viability, T/C [38] 87.7% | viability, T/C [39] 87% | viability, T/C [40] 50.8% | viability, T/C [11] 97% | viability, T/C [12] 84.3% | viability, T/C [41] 91.7% | viability, T/C [42] 97.5% | viability, T/C [43] 90.8% | viability, T/C [44] 52% | viability, T/C [17] 94.7% | viability, T/C [18] 96.2% | viability, T/C [45] 92% | viability, T/C [46] 88% | viability, T/C [47] 76.6% | viability, T/C [48] 46.9% | viability, T/C [23] 85.2% | viability, T/C [24] 85.8% | viability, T/C [49] 88% | viability, T/C [50] 79.3% | viability, T/C [51] 70.1% | viability, T/C [52] 44.2% | viability, T/C [29] 62.6% | viability, T/C [30] 76% | viability, T/C [53] 62.6% | viability, T/C [54] 65.7% | viability, T/C [55] 59.2% | viability, T/C [56] 44.1% | viability, T/C [35] 49% | viability, T/C [36] 52.6% | viability, T/C [57] 46.3% | viability, T/C [58] 40.3% | viability, T/C [59] 46.1% | viability, T/C [60] 28.3%

CCCS(=O)(=O)Nc1ccc(F)c(C(=O)c2c[nH]c3ncc(-c4ccc(Cl)cc4)cc23)c1F + CC(Nc1ncnc2nc[nH]c12)c1cc2cccc(Cl)c2c(=O)n1-c1ccccc1
3620 nM: IC50 (second compound 3.16 µM)
1700 nM: IC50 (second compound 10 µM)
active: viability, T/C [40] 9.37%
4210 nM: IC50 (second compound 0.0316 µM)
4540 nM: IC50 (second compound 0.316 µM)
4650 nM: IC50 (second compound 0.1 µM)
inactive: viability, T/C [5] 94.8% | viability, T/C [6] 92.3% | viability, T/C [37] 97.1% | viability, T/C [38] 102% | viability, T/C [39] 63.4% | viability, T/C [11] 85% | viability, T/C [12] 91.8% | viability, T/C [41] 114% | viability, T/C [42] 85.1% | viability, T/C [43] 70.5% | viability, T/C [44] 10.7% | viability, T/C [17] 91.8% | viability, T/C [18] 91.1% | viability, T/C [45] 95% | viability, T/C [46] 97.1% | viability, T/C [47] 67.7% | viability, T/C [48] 11.3% | viability, T/C [23] 99.9% | viability, T/C [24] 89% | viability, T/C [49] 87.9% | viability, T/C [50] 72.4% | viability, T/C [51] 65.1% | viability, T/C [52] 9.68% | viability, T/C [29] 75.3% | viability, T/C [30] 75.7% | viability, T/C [53] 72.1% | viability, T/C [54] 71.5% | viability, T/C [55] 55.2% | viability, T/C [56] 10.6% | viability, T/C [35] 52.9% | viability, T/C [36] 57.4% | viability, T/C [57] 55.3% | viability, T/C [58] 66.5% | viability, T/C [59] 40.5% | viability, T/C [60] 11.8%
3910 nM: IC50 (second compound 1 µM)
